# Laboratory results as given in patent US20260217701A1, “SELECTIVE BET INHIBITORS AND USES THEREOF” (Tay Therapeutics Limited, priority 2022, published 2026).
# Test system: imiquimod-induced psoriasis
# Assay: Imiquimod-induced psoriasis model
# Assay type: in vivo, mice
# Conditions: for Mean scores of the presence of peeling on the skin of animals at the area of induction of psoriasis / Mean scores of the presence of erythema on the skin of animals at the area of induction of psoriasis / Mean scores of the presence of induration on the skin of animals at the area of induction of psoriasis: mean ± SEM; for Mean PASI Scores in IMI-Psoriasis Model: mice
# Method in brief: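 Mice given topical imiquimod (5% cream) daily on depilated backs Days 1–14; Compound A in 5% DMSO/40% PEG-400/55% saline from Day 8, clobetasol topical as reference. Daily PASI (erythema, induration, peeling, each 0–4, summed) Days 8–15; spleen weight, open-field behaviour, serum IL-1B, IL-6, IL-17, TNF-α, IL-22, IL-23 at Day 15.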
# [1] = IMI + 10 mg/kg, D8 (before start of treatment)
structure (smiles),measurement,setting,value
"COCCn1cc(-c2ccccc2)c(-c2cn(C)c(=O)c3[nH]c(-c4cnn(C(F)(F)F)c4)cc23)cc1=O [Compound B, 4-(1-(2-methoxyethyl)-2-oxo-5-phenyl-1,2-dihydropyridin-4-yl)-6-methyl-2-(1-(trifluoromethyl)-1H-pyrazol-4-yl)-1,6-dihydro-7H-pyrrolo[2,3-c]pyridin-7-one]",Mean scores of the presence of peeling on the skin of animals at the area of induction of psoriasis,"IMI + 3 mg/kg, D15",1.3 ± 0.3
same,Mean scores of the presence of erythema on the skin of animals at the area of induction of psoriasis,[1],2.1 ± 0.1
same,Mean scores of the presence of induration on the skin of animals at the area of induction of psoriasis,[1],2.8 ± 0.2
same,Mean scores of the presence of peeling on the skin of animals at the area of induction of psoriasis,[1],2.4 ± 0.3
same,Mean scores of the presence of erythema on the skin of animals at the area of induction of psoriasis,"IMI + 10 mg/kg, D9",1.5 ± 0.2
same,Mean scores of the presence of induration on the skin of animals at the area of induction of psoriasis,"IMI + 10 mg/kg, D9",2.0 ± 0.2
same,Mean scores of the presence of peeling on the skin of animals at the area of induction of psoriasis,"IMI + 10 mg/kg, D9",2.1 ± 0.2
same,Mean scores of the presence of erythema on the skin of animals at the area of induction of psoriasis,"IMI + 10 mg/kg, D10",1.8 ± 0.2
same,Mean scores of the presence of induration on the skin of animals at the area of induction of psoriasis,"IMI + 10 mg/kg, D10",2.1 ± 0.2
same,Mean scores of the presence of peeling on the skin of animals at the area of induction of psoriasis,"IMI + 10 mg/kg, D10",2.0 ± 0.3
same,Mean scores of the presence of erythema on the skin of animals at the area of induction of psoriasis,"IMI + 10 mg/kg, D11",1.5 ± 0.2
same,Mean scores of the presence of induration on the skin of animals at the area of induction of psoriasis,"IMI + 10 mg/kg, D11",1.5 ± 0.2
same,Mean scores of the presence of peeling on the skin of animals at the area of induction of psoriasis,"IMI + 10 mg/kg, D11",1.9 ± 0.1
same,Mean scores of the presence of erythema on the skin of animals at the area of induction of psoriasis,"IMI + 10 mg/kg, D12",0.9 ± 0.3
same,Mean scores of the presence of induration on the skin of animals at the area of induction of psoriasis,"IMI + 10 mg/kg, D12",1.1 ± 0.1
same,Mean scores of the presence of peeling on the skin of animals at the area of induction of psoriasis,"IMI + 10 mg/kg, D12",1.0 ± 0.2
same,Mean scores of the presence of erythema on the skin of animals at the area of induction of psoriasis,"IMI + 10 mg/kg, D13",0.6 ± 0.3
same,Mean scores of the presence of induration on the skin of animals at the area of induction of psoriasis,"IMI + 10 mg/kg, D13",1.0 ± 0.0
same,Mean scores of the presence of peeling on the skin of animals at the area of induction of psoriasis,"IMI + 10 mg/kg, D13",0.4 ± 0.2
same,Mean scores of the presence of erythema on the skin of animals at the area of induction of psoriasis,"IMI + 10 mg/kg, D14",0.1 ± 0.1
same,Mean scores of the presence of induration on the skin of animals at the area of induction of psoriasis,"IMI + 10 mg/kg, D14",0.6 ± 0.2
same,Mean scores of the presence of peeling on the skin of animals at the area of induction of psoriasis,"IMI + 10 mg/kg, D14",0.5 ± 0.2
same,Mean scores of the presence of erythema on the skin of animals at the area of induction of psoriasis,"IMI + 10 mg/kg, D15",0.1 ± 0.1
same,Mean scores of the presence of induration on the skin of animals at the area of induction of psoriasis,"IMI + 10 mg/kg, D15",0.4 ± 0.2
same,Mean scores of the presence of peeling on the skin of animals at the area of induction of psoriasis,"IMI + 10 mg/kg, D15",0.4 ± 0.2
same,Mean PASI Scores in IMI-Psoriasis Model,"IMI + 1 mg/kg, D8 (before start of treatment)",7.0 ± 0.3
same,Mean PASI Scores in IMI-Psoriasis Model,"IMI + 1 mg/kg, D9",6.8 ± 0.6
same,Mean PASI Scores in IMI-Psoriasis Model,"IMI + 1 mg/kg, D10",6.0 ± 0.3
same,Mean PASI Scores in IMI-Psoriasis Model,"IMI + 1 mg/kg, D11",6.5 ± 0.5
same,Mean PASI Scores in IMI-Psoriasis Model,"IMI + 1 mg/kg, D12",5.6 ± 0.3
same,Mean PASI Scores in IMI-Psoriasis Model,"IMI + 1 mg/kg, D13",5.6 ± 0.5
same,Mean PASI Scores in IMI-Psoriasis Model,"IMI + 1 mg/kg, D14",5.6 ± 0.4
same,Mean PASI Scores in IMI-Psoriasis Model,"IMI + 1 mg/kg, D15",5.1 ± 0.4
same,Mean PASI Scores in IMI-Psoriasis Model,"IMI + 3 mg/kg, D8 (before start of treatment)",7.4 ± 0.3
same,Mean PASI Scores in IMI-Psoriasis Model,"IMI + 3 mg/kg, D9",6.0 ± 0.4
same,Mean PASI Scores in IMI-Psoriasis Model,"IMI + 3 mg/kg, D10",5.8 ± 0.4
same,Mean PASI Scores in IMI-Psoriasis Model,"IMI + 3 mg/kg, D11",5.4 ± 0.3
same,Mean PASI Scores in IMI-Psoriasis Model,"IMI + 3 mg/kg, D12",5.4 ± 0.3
same,Mean PASI Scores in IMI-Psoriasis Model,"IMI + 3 mg/kg, D13",5.0 ± 0.4
same,Mean PASI Scores in IMI-Psoriasis Model,"IMI + 3 mg/kg, D14",4.6 ± 0.4
same,Mean PASI Scores in IMI-Psoriasis Model,"IMI + 3 mg/kg, D15",3.5 ± 0.5
same,Mean PASI Scores in IMI-Psoriasis Model,[1],7.3 ± 0.4
same,Mean PASI Scores in IMI-Psoriasis Model,"IMI + 10 mg/kg, D9",5.6 ± 0.4
same,Mean PASI Scores in IMI-Psoriasis Model,"IMI + 10 mg/kg, D10",5.9 ± 0.5
same,Mean PASI Scores in IMI-Psoriasis Model,"IMI + 10 mg/kg, D11",4.9 ± 0.3
same,Mean PASI Scores in IMI-Psoriasis Model,"IMI + 10 mg/kg, D12",3.1 ± 0.5
same,Mean PASI Scores in IMI-Psoriasis Model,"IMI + 10 mg/kg, D13",2.0 ± 0.4
same,Mean PASI Scores in IMI-Psoriasis Model,"IMI + 10 mg/kg, D14",1.3 ± 0.3
same,Mean PASI Scores in IMI-Psoriasis Model,"IMI + 10 mg/kg, D15",0.9 ± 0.4
same,"erythema, induration and peeling of the skin at the area of induction","mouse, in vivo",significantly reduced
same,use of enrichment (nesting),relative to vehicle-treated psoriasis animals,similarly restored use of nesting
